Test results: publication PMC5923142, “Selection and Characterization of Rupintrivir-Resistant Norwalk Virus Replicon Cells In Vitro” (Antimicrobial Agents and Chemotherapy, 2018)
Entries after “also recorded” stand apart in the source; their conditions may differ.

Tests used:
[1] = biological target: T1, GI A105V/I109V mutant protease (Norovirus, UniProt Q83883, A1205V/I1209V); assay: Cell-based FRET assay, GI A105V/I109V protease; design: species or system norovirus GI.1 (M87661)
T1 construct: plasmids expressing norovirus protease from GI.1 (M87661); expressed in transfected cells; host or cells: HEK293T
T1 sequence (Q83883 1101-1281 A1205V/I1209V): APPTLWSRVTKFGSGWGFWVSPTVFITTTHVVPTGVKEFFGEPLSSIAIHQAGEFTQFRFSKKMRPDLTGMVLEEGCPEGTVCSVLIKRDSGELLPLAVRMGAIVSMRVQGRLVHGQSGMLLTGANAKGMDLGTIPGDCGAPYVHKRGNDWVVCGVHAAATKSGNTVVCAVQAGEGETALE
From the text: (§1) The generation of plasmids expressing norovirus protease from GI.1 (M87661), GII.4 (DQ658413), or GV (DQ285629) norovirus and FRET assay constructs has been described previously ([18]). The plasmids carrying GI, GII, and GV proteases with the A105V, I109V, or A105V/I109V mutation were generated from the wild-type (WT) protease constructs described above by the QuikChange site-directed mutagenesis method. Mutant MNV genomes for reverse genetics were generated by two-step PCR mutagenesis of the WT MNV genome (pT7 MNV 3RZ) construct as described previously ([27]). The primers used for generation of the plasmids are listed in Tables S1 and S2 in the supplemental material.
(§2) The YFP/CFP ratio was used to determine FRET efficiency, as described previously ([18], [40]). Briefly, HEK293T cells were plated into black 96-well cell culture microplates (Greiner Bio-One) at a density of 5 × 10^4 cells/well in 100 μl of DMEM containing 10% fetal bovine serum with or without various concentrations of rupintrivir and then incubated for 4 h in a CO2 incubator at 37°C. […] The plates were then analyzed on a SpectraMax i3 instrument in fluorescence mode, with excitation set at 434 nm and the reading emissions set at 477 nm (CFP) and 527 nm (YFP). The background fluorescence from wells transfected with pcDNA3.1 was determined and subtracted. […]

recombinant WT MNV = assay: Antiviral effect against recombinant WT MNV infection of BV-2 cells (TCID50); type: cell-based, murine norovirus; details: BV-2, 24 h
Method: BV-2 cells were infected with recombinant WT MNV or the MNV I109V mutant at an MOI of 0.1 or 1 for 1 h in the CO2 incubator at 37°C. After incubation, the supernatant was removed and the cells were washed twice with PBS, and then complete DMEM containing various concentrations of rupintrivir or 2CMC was added to the cells. After 24 h for incubation, the virus titers of the supernatant were determined by measurement of the TCID50. On the basis of the TCID50, the 90% effective concentration (EC90) values of rupintrivir and 2CMC were calculated using XLfit (version 5.3) software.

[2] = test system: HRV2 N165T/E3G or N165T/A103V; design: method as in PMID 17908951; details: serial passage of HRV2 for 62 days; cited from earlier work
[3] = biological target: T2, MNV I109V protease (polyprotein) (Norovirus, UniProt Q80J95, I1103V); assay: In vitro translation, MNV polyprotein processing, I109V protease; type: biochemical, murine norovirus; details: 80 μM, rabbit reticulocyte lysate
T2 construct: in vitro-transcribed MNV full-length capped RNA containing either the WT or mutant proteases; made in house; host or cells: rabbit reticulocyte lysate (Flexi system, Promega), in vitro translation
Method: FIG 4 Impact of rupintrivir resistance-conferring mutations on MNV polyprotein processing in vitro. In vitro translation reactions were programmed with equal quantities of in vitro-transcribed MNV full-length capped RNA containing either the WT or mutant proteases in the presence and absence of 80 μM rupintrivir. The [^35S]methionine-labeled products were subsequently analyzed by SDS-PAGE and phosphorimaging analysis. The percentage of fully processed NS3, determined on the basis of the expected molecular mass of the proteins, was calculated and expressed relative to the total amount of viral protein produced.
In vitro translation reactions were performed using a Flexi rabbit reticulocyte lysate system (Promega). The reaction mixtures were prepared according to the manufacturer's instructions as described for capped mRNAs and programmed with 1 μg of RNA per 25-μl reaction mixture. The reaction mixtures were incubated at 30°C for 90 min prior to the addition of an equal volume of SDS-PAGE sample buffer. Samples were subsequently resolved on a 12.5% SDS-polyacrylamide gel before exposure to a phosphorimager screen.

GV I109V mutant protease = biological target: T3, GV I109V mutant protease (Norovirus, UniProt Q80J95, I1103V); assay: Cell-based FRET assay, GV I109V protease; design: species or system murine norovirus (MNV) GV (DQ285629)
T3 construct: plasmids expressing norovirus protease from GI.1 (M87661), GII.4 (DQ658413), or GV (DQ285629) norovirus; expressed in transfected cells; host or cells: HEK293T
T3 sequence (Q80J95 995-1177 I1103V): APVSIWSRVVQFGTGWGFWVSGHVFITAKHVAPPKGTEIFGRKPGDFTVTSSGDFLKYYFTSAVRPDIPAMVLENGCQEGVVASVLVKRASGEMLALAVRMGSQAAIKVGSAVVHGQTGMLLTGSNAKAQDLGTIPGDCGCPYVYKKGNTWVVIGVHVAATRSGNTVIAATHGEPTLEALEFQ
From the text: as §1, §2

in vitro = type: cell-based; details: human; HGT-NV cells, 72 h, resazurin; read-out: 50% cytotoxic concentration (CC50)
Method: The cell cytotoxicity of rupintrivir against HGT-NV cells was determined by a resazurin assay ([39]). Briefly, subconfluent HGT-NV cells in 96-well plates were treated with various concentrations of rupintrivir and then incubated for 72 h in a CO2 incubator at 37°C. After incubation, the supernatant was removed and the cells were washed with PBS, and then complete DMEM containing resazurin (0.1 mg/ml) was added to the cells. After 4 h of incubation, the optical density at 560 nm with a 620-nm optical density reference was determined by using a SpectraMax i3 instrument (Molecular Devices). The 50% cytotoxic concentration (CC50) values of rupintrivir were calculated using XLfit (version 5.3) software.

Norwalk virus replicon = assay: Colony formation assay with HGT-NV cells after 12 days of treatment; type: cell-based, Human norovirus (HuNoV) GI; details: then 1 week G418 1.5 mg/ml without drug
Method: HGT-NV cells treated with rupintrivir or DMSO for 12 days in the absence of G418 were plated into 6-well plates in complete DMEM and maintained without rupintrivir in the presence of G418 (1.5 mg/ml). After 1 week of incubation, the colonies on the plate were stained with 0.1% toluidine blue and photographed.

GII mutant proteases = assay: Cell-based FRET assay, GII mutant proteases (A105V, I109V, A105V/I109V); design: species or system norovirus GII.4 (DQ658413); details: A105V/I109V vs GII WT, HEK293T cells
From the text: as §1, §2

For `CCOC(=O)/C=C/[C@H](C[C@@H]1CCNC1=O)NC(=O)[C@@H](CC(=O)[C@@H](NC(=O)c1cc(C)on1)C(C)C)Cc1ccc(F)cc1` [rupintrivir, Rupintrivir], the IC50 ([1]; HEK293T cells, GI NS1/2-NS3 FRET substrate) was 6.6 ± 1.2 µM, the “fold increase in IC50” value ([1]; vs GI WT protease) was 5.1 fold and the EC90 (recombinant WT MNV; MOI 0.1 TCID50/cell) was 9.1 µM. For the same molecule, the EC90 (recombinant WT MNV; MOI 1 TCID50/cell) was 8.9 µM, the fold reduced susceptibility [2] was 5 fold and the “polyprotein processing (mature NS3)” value [3] was “still able to produce mature NS3”. The IC50 (GV I109V mutant protease; HEK293T cells, GV NS1/2-NS3 FRET substrate) was 2.7 ± 0.6 µM, the “fold increase in IC50” value (GV I109V mutant protease; vs GV WT protease) was 2.7 fold and the CC50 (in vitro) was over 100 µM. The colony formation (Norwalk virus replicon; 2.5 μM for 12 days) was “some colonies remained”, the colony formation (Norwalk virus replicon; 5 μM for 12 days) was “some colonies remained” and the colony formation (Norwalk virus replicon; 10 μM for 12 days) was “completely prevent colony formation”. For the same molecule, the “effect of substitutions on the IC50” value (GII mutant proteases) was “no measurable effect; also recorded: no significant differences”.
